PubChem BioAssay AID330 (DTP/NCI, 2004)
Toxic doses and inconclusive results are not listed. How the source made its calls: active means survival T/C of 150% or more; inactive means T/C below 125% in these data. Bridge positions count the residues as written; N and C are the ends. Square brackets hold non-standard residues; d marks the D form. Peptide text beside a SMILES is read from it. * marks the point of attachment. Cya = N[CH](CS(=O)(=O)O)C(=O)O; X6 = CC(C)CCCCCCCC(O)CC(=O)*; GABA = NCCCC(=O)O

Tested on: P388 leukemia ip, CD2F1 mice, survival T/C
Test: NCI In Vivo Anticancer Drug Screen. Data for tumor model P388 Leukemia (intraperitoneal) in CD2F1 (CDF1) mice
Conditions: endpoint: median survival time, higher = longer survival
In short: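 Mice carrying the transplanted tumor received test compound or vehicle. Survival was recorded in each group, and the value is the treated-group measurement divided by that of the vehicle-treated control group.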

[1] = dose: 25.0 mg/kg/injection, schedule: Q01DX009 (ip), vehicle: Klucel (hydroxypropylcellulose) (HPC)
[2] = dose: 50.0 mg/kg/injection, schedule: Q01DX009 (ip), vehicle: Klucel (hydroxypropylcellulose) (HPC)
[3] = dose: 100.0 mg/kg/injection, schedule: Q01DX009 (ip), vehicle: Klucel (hydroxypropylcellulose) (HPC)
[4] = dose: 60.0 mg/kg/injection, schedule: Q01DX005 (ip), vehicle: Klucel (hydroxypropylcellulose) (HPC)
[5] = dose: 120.0 mg/kg/injection, schedule: Q01DX005 (ip), vehicle: Klucel (hydroxypropylcellulose) (HPC)
[6] = dose: 50.0 mg/kg/injection, schedule: Q01DX005 (ip), vehicle: saline with Tween-80
[7] = dose: 100.0 mg/kg/injection, schedule: Q01DX005 (ip), vehicle: saline with Tween-80
[8] = dose: 200.0 mg/kg/injection, schedule: Q01DX005 (ip), vehicle: saline with Tween-80
[9] = dose: 50.0 mg/kg/injection, schedule: Q01DX009 (ip), vehicle: saline with Tween-80
[10] = dose: 100.0 mg/kg/injection, schedule: Q01DX009 (ip), vehicle: saline with Tween-80
[11] = dose: 240.0 mg/kg/injection, schedule: Q01DX005 (ip), vehicle: Klucel (hydroxypropylcellulose) (HPC)
[12] = dose: 60.0 mg/kg/injection, schedule: Q01DX005 (ip), vehicle: saline with Tween-80
[13] = dose: 120.0 mg/kg/injection, schedule: Q01DX005 (ip), vehicle: saline with Tween-80
[14] = dose: 240.0 mg/kg/injection, schedule: Q01DX005 (ip), vehicle: saline with Tween-80
[15] = dose: 200.0 mg/kg/injection, schedule: Q01DX009 (ip), vehicle: saline with Tween-80

Measured: T/C

COc1cc2c3cc1Oc1c(OC)c(OC)cc4c1C(Cc1ccc(cc1)Oc1cc(ccc1O)CC3N(C)CC2)N(C)CC4 (configuration not stated)
inactive: dose: 12.5 mg/kg/injection, schedule: Q01DX009 (ip), vehicle: Klucel (hydroxypropylcellulose) (HPC) 97 % of control | [1] 97 % of control | [2] 94 % of control | [3] 105 % of control

O=C1NC(=O)C2(OC3c4ccccc4C=NN3C3=C2C(=O)CCC3)C(=O)N1 (configuration not stated)
inactive: [4] 98 % of control | [5] 97 % of control

CCN(CC)CCSc1ccccc1
inactive: dose: 50.0 mg/kg/injection, schedule: Q01DX005 (ip), vehicle: Klucel (hydroxypropylcellulose) (HPC) 100 % of control | dose: 100.0 mg/kg/injection, schedule: Q01DX005 (ip), vehicle: Klucel (hydroxypropylcellulose) (HPC) 102 % of control

COc1cccc(/C=C/S(=O)(=O)Cc2ccccc2)c1OC
inactive: [6] 93 % of control | [7] 100 % of control | [8] 91 % of control

CN1C(=O)CC(Sc2ccccc2)c2ccccc21 (configuration not stated)
inactive: dose: 25.0 mg/kg/injection, schedule: Q01DX009 (ip), vehicle: saline with Tween-80 96 % of control | [9] 97 % of control | [10] 93 % of control

CC(C)CCCCCCCC(O)CC(=O)NC(CS(=O)(=O)O)C(=O)NC(CC(C)C)C(=O)NCCCC(=O)NC(Cc1cnc[nH]1)C(=O)NC(C)C(=O)NC1C(=O)NC(C(C)O)C(=O)NC(Cc2cnc[nH]2)C(=O)NC(C)C(=O)NC(C(C)O)C(=O)OC1C (configuration not stated) (X6-[Cya]L[GABA]HATTHAT; ester 6-C; configuration not given here)
inactive: dose: 0.38 mg/kg/injection, schedule: Q01DX005 (ip), vehicle: other 95 % of control | dose: 0.75 mg/kg/injection, schedule: Q01DX005 (ip), vehicle: other 102 % of control | dose: 1.5 mg/kg/injection, schedule: Q01DX005 (ip), vehicle: other 100 % of control | dose: 3.0 mg/kg/injection, schedule: Q01DX005 (ip), vehicle: other 100 % of control | dose: 6.0 mg/kg/injection, schedule: Q01DX005 (ip), vehicle: other 99 % of control

COC(=O)/C(C#N)=C/Sc1ccccc1
inactive: dose: 100.0 mg/kg/injection, schedule: Q01DX001 (ip), vehicle: saline with Tween-80 101 % of control | dose: 200.0 mg/kg/injection, schedule: Q01DX001 (ip), vehicle: saline with Tween-80 98 % of control | dose: 400.0 mg/kg/injection, schedule: Q01DX001 (ip), vehicle: saline with Tween-80 97 % of control

CCOC(=O)C1=C(C)NC(C)=C(C(=O)OCC)C1c1ccc(OC)cc1
inactive: [1] 94 % of control | [2] 91 % of control | [3] 100 % of control | dose: 200.0 mg/kg/injection, schedule: Q01DX009 (ip), vehicle: Klucel (hydroxypropylcellulose) (HPC) 101 % of control

O=S(=O)(CS(=O)(=O)c1ccccc1Br)c1ccccc1Br
inactive: dose: 30.0 mg/kg/injection, schedule: Q01DX005 (ip), vehicle: Klucel (hydroxypropylcellulose) (HPC) 100 % of control | [4] 100 % of control | [5] 100 % of control | [11] 100 % of control

CCN(CC)CCCNc1cc(C)nc2c1ccc1c2ccc2c(NCCCN(CC)CC)cc(C)nc21
inactive: dose: 12.5 mg/kg/injection, schedule: Q01DX009 (ip), vehicle: water 105 % of control | dose: 25.0 mg/kg/injection, schedule: Q01DX009 (ip), vehicle: water 103 % of control | dose: 50.0 mg/kg/injection, schedule: Q01DX009 (ip), vehicle: water 116 % of control

Nc1c(Br)cc(Br)c2c1[nH]c(=O)c1ccccc12
inactive: [12] 96 % of control | [13] 90 % of control | [14] 107 % of control

CS/N=N/N=C(\c1ccccc1)N1CCOCC1
inactive: [12] 103 % of control | [13] 97 % of control

COc1ccc(C2N(C)CCCN2C)c(OC)c1
inactive: dose: 6.25 mg/kg/injection, schedule: Q01DX009 (ip), vehicle: saline sonified 100 % of control | dose: 12.5 mg/kg/injection, schedule: Q01DX009 (ip), vehicle: saline sonified 105 % of control | dose: 25.0 mg/kg/injection, schedule: Q01DX009 (ip), vehicle: saline sonified 100 % of control

C/C=C1/CN2CCC34c5ccccc5N(C(C)=O)C3C(CO)C1CC24 (configuration not stated)
inactive: dose: 11.25 mg/kg/injection, schedule: Q01DX009 (ip), vehicle: saline with Tween-80 106 % of control | dose: 22.5 mg/kg/injection, schedule: Q01DX009 (ip), vehicle: saline with Tween-80 100 % of control | dose: 45.0 mg/kg/injection, schedule: Q01DX009 (ip), vehicle: saline with Tween-80 102 % of control | dose: 90.0 mg/kg/injection, schedule: Q01DX009 (ip), vehicle: saline with Tween-80 100 % of control

CC1=CC2(C)OC3C(=O)N(c4ccc(Cl)cc4)C(=O)C3C2N=C1 (configuration not stated)
inactive: [12] 104 % of control | [13] 99 % of control | [14] 100 % of control

O=[N+]([O-])c1ccc(NC(c2ccccc2)S(=O)(=O)O)cc1 (configuration not stated)
inactive: dose: 50.0 mg/kg/injection, schedule: Q01DX009 (ip), vehicle: saline 119 % of control | dose: 100.0 mg/kg/injection, schedule: Q01DX009 (ip), vehicle: saline 109 % of control | dose: 200.0 mg/kg/injection, schedule: Q01DX009 (ip), vehicle: saline 123 % of control

CCCCCCCCCSCC
inactive: [9] 100 % of control | [10] 109 % of control | dose: 100.0 mg/kg/injection, schedule: Q04DX003 (ip), vehicle: saline with Tween-80 109 % of control | [15] 109 % of control | dose: 200.0 mg/kg/injection, schedule: Q04DX003 (ip), vehicle: saline with Tween-80 100 % of control | dose: 400.0 mg/kg/injection, schedule: Q04DX003 (ip), vehicle: saline with Tween-80 86 % of control

CCOC(=O)/C=C(/C)SC1=CC(=O)C=CC1=O
inactive: [6] 92 % of control | [7] 92 % of control | [8] 100 % of control

CN(C)C(=S)N/N=C/c1ccccn1
inactive: dose: 6.25 mg/kg/injection, schedule: Q01DX005 (ip), vehicle: Klucel (hydroxypropylcellulose) (HPC) 115 % of control | dose: 12.5 mg/kg/injection, schedule: Q01DX005 (ip), vehicle: Klucel (hydroxypropylcellulose) (HPC) 115 % of control

COc1ccc(Cl)c2c(=O)c3ccc4c(c3[nH]c12)C(=O)c1ccccc1C4=O
inactive: [4] 96 % of control | [5] 91 % of control | [11] 86 % of control

OCC1OC(C2N(c3ccccc3)CCN2c2ccccc2)C(O)C1O (configuration not stated)
inactive: dose: 12.5 mg/kg/injection, schedule: Q01DX009 (ip), vehicle: distilled water + Tween-80 102 % of control | dose: 25.0 mg/kg/injection, schedule: Q01DX009 (ip), vehicle: distilled water + Tween-80 100 % of control | dose: 50.0 mg/kg/injection, schedule: Q01DX009 (ip), vehicle: distilled water + Tween-80 98 % of control | dose: 100.0 mg/kg/injection, schedule: Q01DX009 (ip), vehicle: distilled water + Tween-80 90 % of control | dose: 200.0 mg/kg/injection, schedule: Q01DX009 (ip), vehicle: distilled water + Tween-80 93 % of control

C=CCNC(=S)Nc1ccccc1C(=O)c1ccccc1
inactive: [9] 104 % of control | [10] 103 % of control | [15] 103 % of control

CC(C(=O)N1CCCC1)C(O)c1ccccc1 (configuration not stated)
inactive: dose: 50.0 mg/kg/injection, schedule: Q01DX005 (ip), vehicle: saline 105 % of control | dose: 100.0 mg/kg/injection, schedule: Q01DX005 (ip), vehicle: saline 107 % of control | dose: 200.0 mg/kg/injection, schedule: Q01DX005 (ip), vehicle: saline 98 % of control

CNCCNc1ccc(C)c2sc3ccc(O)cc3c(=O)c12
inactive: [1] 95 % of control
